# In the supplement of paper PMC10307832:
# What was measured:
# Assay in all cases: relative viability (nuclei count vs DMSO), 5 days (fraction); higher = more cells survive
# [1] = compound: O[C@H]1CC[C@H](Nc2ncc3nc(Nc4c(F)cc(F)cc4F)n([C@H]4CCOC4)c3n2)CC1 [Tanzisertib] + CS(=O)(=O)N1CCN(Cc2cc3nc(-c4cccc5[nH]ncc45)nc(N4CCOCC4)c3s2)CC1 [Pictilisib] (partner 1 µM)
# Method in brief: (§1)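 Relative viability was taken as the ratio of nuclei in treated wells to nuclei in vehicle wells. Lung cancer cell lines in 1536-well plates received compounds by pin tool one day after seeding, either one drug alone or a fixed anchor-drug dose plus five library-drug doses (not always all listed) in √10 steps. Nuclei were counted on 4× images after 5 days of treatment, and values are medians of duplicate plates.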
# [2] = compound: C[C@@H](N)c1ccc(C(=O)Nc2ccnc3[nH]ccc23)cc1 + COc1cccc2cc(-c3nc([C@H]4CC[C@H](C(=O)O)CC4)n4ncnc(N)c34)[nH]c12 [OSI-027] (partner 0.5 µM)
# Method in brief: as §1
# [3] = compound: O[C@H]1CC[C@H](Nc2ncc3nc(Nc4c(F)cc(F)cc4F)n([C@H]4CCOC4)c3n2)CC1 [Tanzisertib] + O=C(c1cc(Cc2n[nH]c(=O)c3ccccc23)ccc1F)N1CCN(C(=O)C2CC2)CC1 [Olaparib] (partner 8 µM)
# Method in brief: as §1
# [4] = compound: C[C@@H](N)c1ccc(C(=O)Nc2ccnc3[nH]ccc23)cc1 + O=C(c1cc(Cc2n[nH]c(=O)c3ccccc23)ccc1F)N1CCN(C(=O)C2CC2)CC1 [Olaparib] (partner 8 µM)
# Method in brief: as §1
Cell Line,relative viability ([1]; first compound 0.08 µM),relative viability ([1]; first compound 0.253 µM),relative viability ([1]; first compound 0.8 µM),relative viability ([1]; first compound 2.53 µM),relative viability ([1]; first compound 8 µM),relative viability ([2]; first compound 0.04 µM),relative viability ([2]; first compound 0.1265 µM),relative viability ([2]; first compound 0.4 µM),relative viability ([2]; first compound 1.265 µM),relative viability ([2]; first compound 4 µM),relative viability ([3]; first compound 0.08 µM),relative viability ([3]; first compound 0.253 µM),relative viability ([3]; first compound 0.8 µM),relative viability ([3]; first compound 2.53 µM),relative viability ([3]; first compound 8 µM),relative viability ([4]; first compound 0.04 µM),relative viability ([4]; first compound 0.1265 µM),relative viability ([4]; first compound 0.4 µM),relative viability ([4]; first compound 1.265 µM),relative viability ([4]; first compound 4 µM)
201T,0.748,0.676,0.684,0.687,0.649,0.844,0.835,0.961,1.01,0.856,0.854,0.902,0.855,0.848,0.864,0.867,0.883,0.818,0.895,0.949
PC-14,0.778,0.594,0.799,0.693,0.203,0.846,0.968,0.904,0.712,0.625,0.343,0.228,0.402,0.271,0.246,0.281,0.233,0.263,0.29,0.271
NCI-H1650,0.656,0.538,0.666,0.586,0.438,0.825,0.773,0.761,0.707,0.664,0.807,0.778,0.882,0.671,0.662,0.81,0.943,0.812,0.822,0.763
NCI-H727,0.356,0.463,0.363,0.333,0.307,0.832,0.68,0.719,0.676,0.852,0.69,0.678,0.553,0.734,0.686,0.64,0.738,0.8,0.771,0.742
NCI-H1792,0.307,0.261,0.29,0.231,0.243,0.796,0.77,0.736,0.869,0.65,0.813,0.572,0.498,0.345,0.436,0.419,0.523,0.564,0.383,0.319
COR-L23,0.922,0.736,0.781,0.97,0.869,0.775,0.838,0.755,0.748,0.669,0.339,0.353,0.347,0.417,0.353,0.296,0.341,0.322,0.277,0.176
ChaGo-K-1,0.657,0.819,0.845,0.627,0.482,0.496,0.487,0.487,0.297,0.564,0.511,0.422,0.453,0.45,0.438,0.418,0.426,0.414,0.438,0.345
HOP-62,0.851,0.874,0.856,0.871,0.341,0.819,0.76,0.852,0.745,0.821,0.268,0.426,0.587,0.643,0.556,0.43,0.381,0.419,–,0.47
